Source: US12612371B2, “Sigma-1 receptor ligands and therapeutic uses thereof” (UNIVERSITE DE STRASBOURG, priority 2019, dated 2026)

Biological target: T1, sigma 1 (h) (Homo sapiens, UniProt Q99720)
T1 construct: incubating Jurkat cell membranes (10-20 mg protein per tube) with [^3H](+) pentazocine; endogenous in cells; host or cells: Jurkat cell membranes
Assay: σ1 binding assay ([3H](+)pentazocine displacement, Jurkat cell membranes)
Settings: [3H](+)pentazocine 15 nM, 37° C., 2 hours; for inhibition at 0.01 µM: compound at 10 nM, read-out: Sigma-1 receptor % inhibition 10 nM; for inhibition at 0.1 µM: compound at 100 nM, read-out: Sigma-1 receptor % inhibition 100 nM
Description: The σ1 binding assays were performed according to Ganapathy et al (Ganapathy, M. E. et al. (1999), J. Pharmacol. Exp. Ther., 28:251-260). The σ1 binding assay was carried out by incubating Jurkat cell membranes (10-20 mg protein per tube) with [^3H](+) pentazocine a selective S1R ligand (15 nM) and a range of concentration of tested compounds, at 37° C. for 2 hours in 5 mM tris/HCl buffer (pH=7.4). The inhibition of [3H]-(+)-pentazocine binding assay is mainly used to determine the inhibition constant (Ki) of potential SIR ligands. These assays are performed with a single concentration of [^3H]-(+)-pentazocine at a concentration near its KD and increasing concentrations of non-radioactive ligands.

T1 sequence (Q99720 whole entry): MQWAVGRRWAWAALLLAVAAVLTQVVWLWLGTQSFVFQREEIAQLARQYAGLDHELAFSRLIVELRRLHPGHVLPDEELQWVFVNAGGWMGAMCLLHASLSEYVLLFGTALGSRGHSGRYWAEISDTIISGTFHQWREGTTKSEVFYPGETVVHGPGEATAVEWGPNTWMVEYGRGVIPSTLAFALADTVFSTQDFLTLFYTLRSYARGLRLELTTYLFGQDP

SMILES: CC1CN(CCCCn2nccc(-c3ccccc3)c2=O)CC(C)O1 (stereo not shown) [10x, 2-(4-(2,6-dimethylmorpholino)butyl)-4-phenylpyridazin-3(2H)-one]
- inhibition at 0.01 µM: 34.6%
- inhibition at 0.1 µM: 76.2%

SMILES: CN(CCCn1nccc(-c2ccccc2)c1=O)Cc1ccccc1 [9a, 2-(3-(benzyl(methyl)amino)propyl)-4-phenylpyridazin-3(2H)-one]
- inhibition at 0.01 µM: 61.5%

SMILES: O=c1c(-c2ccccc2)ccnn1CCCN1CCOCC1 [9c, 2-[3-(morpholin-4-yl)propyl]-4-phenyl-2,3-dihydropyridazin-3-one]
- inhibition at 0.01 µM: 7.6%

SMILES: O=c1c(N2CCCCC2)ccnn1CCCCN1CCOCC1 [25a, 2-(4-morpholinobutyl)-4-(piperidin-1-yl)pyridazin-3(2H)-one]
- inhibition at 0.01 µM: 15.8%

SMILES: O=c1c(-c2ccccc2)ccnn1CCCCN1CCC(Cc2ccccc2)CC1 [11a, 2-[4-(4-benzylpiperidin-1-yl)butyl]-4-phenyl-2,3-dihydropyridazin-3-one]
- inhibition at 0.01 µM: 83.4%

SMILES: O=c1c(-c2ccccc2)ccnn1CCCCN1CCCC(CO)C1 (stereo not shown) [10t, 2-(4-(3-(hydroxymethyl)piperidin-1-yl)butyl)-4-phenylpyridazin-3(2H)-one]
- inhibition at 0.01 µM: 9.7%
- inhibition at 0.1 µM: 38.2%

SMILES: O=c1c(-c2ccccc2)ccnn1CCCCN1CCCOCC1 [10c, 2-(4-(1,4-oxazepan-4-yl)butyl)-4-phenylpyridazin-3(2H)-one]
- inhibition at 0.01 µM: 40.3%
- inhibition at 0.1 µM: 80.3%

SMILES: O=c1c(-c2ccccc2)ccnn1CCCCN1CCCCC1 [10d, 4-phenyl-2-(4-(piperidin-1-yl)butyl)pyridazin-3(2H)-one]
- inhibition at 0.01 µM: 28.3%

SMILES: O=c1c(-c2ccccc2)ccnn1CCCN1CCCCCC1 [9b, 2-(3-(azepan-1-yl)propyl)-4-phenylpyridazin-3(2H)-one]
- inhibition at 0.01 µM: 47.4%

SMILES: CC1(C)CC2CC(C)(CN2CCCCn2nccc(-c3ccccc3)c2=O)C1 (stereo not shown) [10k, 4-phenyl-2-(4-(1,3,3-trimethyl-6-azabicyclo[3.2.1]octan-6-yl)butyl)pyridazin-3(2H)-one]
- inhibition at 0.01 µM: 3.7%

SMILES: O=c1c(-c2ccccc2)cncn1CCCCN1CCOCC1 [40b, 3-[4-(morpholin-4-yl)butyl]-5-phenyl-3,4-dihydropyrimidin-4-one]
- inhibition at 0.01 µM: 1.4%

SMILES: O=c1c(-c2ccccc2)ccnn1CCCCN1CCN(c2ccccc2)CC1 [11d, 4-phenyl-2-[4-(4-phenylpiperazin-1-yl)butyl]-2,3-dihydropyridazin-3-one]
- inhibition at 0.01 µM: 16.1%

SMILES: O=c1c(-c2ccc(C(F)(F)F)cc2)ccnn1CCCCN1CCOCC1 [11n, 2-[4-(morpholin-4-yl)butyl]-4-[4-(trifluoromethyl)phenyl]-2,3-dihydropyridazin-3-one]
- inhibition at 0.01 µM: 6.13%

SMILES: O=c1c(-c2ccccc2)ccnn1CCCCN1CCc2ccccc2C1 [10g, 2-(4-(3,4-dihydroisoquinolin-2(1H)-yl)butyl)-4-phenylpyridazin-3(2H)-one]
- inhibition at 0.01 µM: 73.5%

SMILES: CN(Cc1ccccc1)CC(O)CCn1nccc(-c2ccccc2)c1=O (stereo not shown) [33a, 2-(4-(benzyl(methyl)amino)-3-hydroxybutyl)-4-phenylpyridazin-3(2H)-one]
- inhibition at 0.01 µM: 12.3%

SMILES: COCC(c1ccccc1)N(C)CCCCn1nccc(-c2ccccc2)c1=O (stereo not shown) [10o, 2-(4-((2-methoxy-1-phenylethyl)(methyl)amino)butyl)-4-phenylpyridazin-3(2H)-one]
- inhibition at 0.01 µM: 25.6%
- inhibition at 0.1 µM: 68.3%

SMILES: CN(CCCCn1nccc(-c2ccccc2)c1=O)C12CC3CC(CC(C3)C1)C2 [10j, 2-(4-(adamantan-1-yl(methyl)amino)butyl)-4-phenylpyridazin-3(2H)-one]
- inhibition at 0.01 µM: 4.9%

SMILES: O=c1c(-c2ccccc2)ccnn1CCCCNC12CC3CC(CC(C3)C1)C2 [10i, 2-(4-(adamantan-1-ylamino)butyl)-4-phenylpyridazin-3(2H)-one]
- inhibition at 0.01 µM: 37.1%

SMILES: O=c1c(-c2ccccc2)ccnn1CCCCN1CCCCCCC1 [10f, 2-(4-(azocan-1-yl)butyl)-4-phenylpyridazin-3(2H)-one]
- inhibition at 0.01 µM: 70%

SMILES: O=c1c(-c2ccc(F)cc2)ccnn1CCCCN1CCOCC1 [11h, 4-(4-fluorophenyl)-2-(4-morpholinobutyl)pyridazin-3(2H)-one]
- inhibition at 0.01 µM: 12%

SMILES: O=c1c(-c2ccsc2)ccnn1CCCCN1CCOCC1 [11o, 2-[4-(morpholin-4-yl)butyl]-4-(thiophen-3-yl)-2,3-dihydropyridazin-3-one]
- inhibition at 0.01 µM: 33.4%

SMILES: CCN(CCCCn1nccc(-c2ccccc2)c1=O)Cc1ccccc1 [11b, 2-{4-[benzyl(ethyl)amino]butyl}-4-phenyl-2,3-dihydropyridazin-3-one]
- inhibition at 0.01 µM: 73.9%

SMILES: O=c1c(-c2ccccc2)ccnn1CCCCN1C2CCC1CC(O)C2 (stereo not shown) [compound 16, 2-(4-(3-hydroxy-8-azabicyclo[3.2.1]octan-8-yl)butyl)-4-phenylpyridazin-3(2H)-one]
- inhibition at 0.01 µM: 4.8%

SMILES: CN(CCCCn1nccc(-c2ccccc2)c1=O)Cc1ccccc1 [10a, 2-(4-(benzyl(methyl)amino)butyl)-4-phenylpyridazin-3(2H)-one]
- inhibition at 0.01 µM: 87.5%

SMILES: O=c1c(-c2ccccc2)ccnn1CCCCN1CCC[C@H]2CCCC[C@@H]21 [11e, 2-{4-[(4aR,8aS)-decahydroquinolin-1-yl]butyl}-4-phenyl-2,3-dihydropyridazin-3-one]
- inhibition at 0.01 µM: 7.4%

SMILES: O=c1c(-c2ccccc2)ccnn1CCCCN1CCc2ccccc2CC1 [10h, 4-phenyl-2-(4-(1,2,4,5-tetrahydro-3H-benzo[d]azepin-3-yl)butyl)pyridazin-3(2H)-one]
- inhibition at 0.01 µM: 70.8%

SMILES: Cc1cc(-c2ccccc2)c(=O)n(CCCCN2CCCCCC2)n1 [11w, 2-[4-(azepan-1-yl)butyl]-6-methyl-4-phenyl-2,3-dihydropyridazin-3-one]
- inhibition at 0.1 µM: 53.9%

SMILES: CN(CCCCn1nccc(-c2ccccc2)c1=O)CC1CCOCC1 [10q, 2-(4-(methyl((tetrahydro-2H-pyran-4-yl)methyl)amino)butyl)-4-phenylpyridazin-3(2H)-one]
- inhibition at 0.01 µM: 29.4%
- inhibition at 0.1 µM: 79.6%

SMILES: Cc1ncc(-c2ccccc2)c(=O)n1CCCCN1CCOCC1 [40a, 2-methyl-3-(4-morpholinobutyl)-5-phenylpyrimidin-4(3H)-one]
- inhibition at 0.01 µM: 1.4%

SMILES: Cc1cc(-c2ccccc2)c(=O)n(CCCCN(C)Cc2ccccc2)n1 [11v, 2-{4-[benzyl(methyl)amino]butyl}-6-methyl-4-phenyl-2,3-dihydropyridazin-3-one]
- inhibition at 0.1 µM: 86%

SMILES: O=c1c(-c2ccccc2)ccnn1CCCCN1CCOCC1 [10b, 2-(4-morpholinobutyl)-4-phenylpyridazin-3(2H)-one]
- inhibition at 0.01 µM: 14.5%

SMILES: O=c1c(-c2ccccc2)cccn1CCCCN1CCOCC1 [41a, 1-[4-(morpholin-4-yl)butyl]-3-phenyl-1,2-dihydropyridin-2-one]
- inhibition at 0.01 µM: 3%

SMILES: O=c1c(-c2ccccc2)ccnn1CCCCN1CCC(c2ccccc2)CC1 [10s, 4-phenyl-2-(4-(4-phenylpiperidin-1-yl)butyl)pyridazin-3(2H)-one]
- inhibition at 0.01 µM: 64.6%

SMILES: O=c1c(-c2ccccc2)ccnn1CCCCN1CCCCC1CCO (stereo not shown) [10u, 2-(4-(2-(2-hydroxyethyl)piperidin-1-yl)butyl)-4-phenylpyridazin-3(2H)-one]
- inhibition at 0.1 µM: 26.5%

SMILES: O=c1c(CCc2ccccc2)ccnn1CCCCN1CCOCC1 [21a, 2-[4-(morpholin-4-yl)butyl]-4-(2-phenylethyl)-2,3-dihydropyridazin-3-one]
- inhibition at 0.01 µM: 1.1%

SMILES: O=c1c(-c2ccccc2)ccnn1CCCCN1CCOC(c2ccccc2)C1 (stereo not shown) [10w, 4-phenyl-2-(4-(2-phenylmorpholino)butyl)pyridazin-3(2H)-one]
- inhibition at 0.01 µM: 37.6%
- inhibition at 0.1 µM: 79.4%

SMILES: O=c1cc(-c2ccccc2)cnn1CCCCN1CCOCC1 [compound 14, 2-(4-morpholinobutyl)-5-phenylpyridazin-3(2H)-one]
- inhibition at 0.01 µM: 2.1%

SMILES: O=c1c(-c2ccc(Cl)cc2)ccnn1CCCCN1CCOCC1 [11k, 4-(4-chlorophenyl)-2-[4-(morpholin-4-yl)butyl]-2,3-dihydropyridazin-3-one]
- inhibition at 0.01 µM: 1.9%

SMILES: O=c1c(-c2ccccc2)ccnn1CCCCN1CCCC(c2ccccc2)C1 (stereo not shown) [10r, 4-phenyl-2-(4-(3-phenylpiperidin-1-yl)butyl)pyridazin-3(2H)-one]
- inhibition at 0.01 µM: 78.7%
- inhibition at 0.1 µM: 92.1%

SMILES: CN(CCO)CCCCn1nccc(-c2ccccc2)c1=O [10p, 2-(4-((2-hydroxyethyl)(methyl)amino)butyl)-4-phenylpyridazin-3(2H)-one]
- inhibition at 0.1 µM: 9.7%

SMILES: O=c1c(-c2ccccc2)ccnn1CCCCN1CCN(Cc2ccccc2)CC1 [10z, 2-[4-(4-benzylpiperazin-1-yl)butyl]-4-phenyl-2,3-dihydropyridazin-3-one]
- inhibition at 0.01 µM: 64.2%

SMILES: O=c1c(-c2ccoc2)ccnn1CCCCN1CCOCC1 [11p, 4-(furan-3-yl)-2-[4-(morpholin-4-yl)butyl]-2,3-dihydropyridazin-3-one]
- inhibition at 0.01 µM: 15.6%

SMILES: O=c1c(-c2ccccc2Cl)ccnn1CCCCN1CCOCC1 [11m, 4-(2-chlorophenyl)-2-[4-(morpholin-4-yl)butyl]-2,3-dihydropyridazin-3-one]
- inhibition at 0.01 µM: 5.04%

SMILES: O=c1c(-c2ccccc2)ccnn1CCCCN(Cc1ccccc1)CC1CCCO1 (stereo not shown) [10m, 2-(4-(benzyl((tetrahydrofuran-2-yl)methyl)amino)butyl)-4-phenylpyridazin-3(2H)-one]
- inhibition at 0.01 µM: 28.8%

SMILES: O=c1c(-c2ccccc2)ccnn1CCCCN1CCCCCC1 [10e, 2-(4-(azepan-1-yl)butyl)-4-phenylpyridazin-3(2H)-one]
- inhibition at 0.01 µM: 30.2%
